Active and inactive are the calls of the source.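 How the source made its calls: active means loss of HeLa cell viability with AC50 at most tenfold above the top tested dose; inconclusive means flat fit with signal drop between 30% and 70%, or poor fit; inactive means AC50 more than tenfold above top tested dose.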

The experiment has as its system HeLa viability, ATP luminescence (CellTiterGlo), 48 h. Nature of the experiment: HeLa cell cytotoxicity, dose response, cytotoxicity control for LANA inhibitor project, luminescence (AID 463211).
By AC50 is commonly meant the concentration at which the activity in the assay is half-maximal. As for `CC1Cc2ccccc2N1C(=O)CSc1ncccn1` (centres undefined), the AC50 is > 35 µM (inactive).

With `CCCCCCn1c(=O)[nH]c2nc3cc(N)ccc3nc2c1=O`, the AC50 is > 35 µM (inactive).

Take `Cc1ccc(Cl)cc1N1CCN(C(=O)C2CCN(S(C)(=O)=O)CC2)CC1`: the AC50 was > 35 µM (inactive).

On to `Cc1cccc(N2C(=O)c3cccc4c(N(C)CCO)ccc(c34)C2=O)c1`, for which the AC50 was > 35 µM (inactive).

`Cc1nn(C)cc1N1C(=O)c2cccc3c(N)ccc(c23)C1=O`: the AC50 is > 35 µM (inactive).

`O=C1c2ccccc2-c2onc3ccc(NCCCn4ccnc4)c1c23`: the half-maximal activity concentration (AC50) was 32.4 µM.

For `COc1ccc(C2C=C(c3ccc(Br)cc3)Nc3nc(NS(C)(=O)=O)nn32)cc1` (centres undefined), the AC50 was > 35 µM (inactive).

Take `O=c1ccc2c(-c3ccccc3)c3ccc(O)cc3oc-2c1`: the AC50 was > 35 µM (inactive).

On to `COc1ccc2ccccc2c1C(O)c1nccn1C` (centres undefined), for which the AC50 was > 35 µM (inactive).

Take `Cn1nc(-c2ccccc2)c2nc3ccccc3nc21`: the AC50 is > 35 µM (inactive).

As to `O=C1c2ccccc2-c2onc3ccc(NCc4ccco4)c1c23`, the AC50 was 28.5 µM.

In the case of `CC1=NCCc2c1[nH]c1cc(O)ccc21`, the AC50 was > 35 µM (inactive).

Regarding `Cc1nn(C)c(C)c1N1C(=O)c2cccc3c(N)ccc(c23)C1=O`, the AC50 was > 35 µM (inactive).

Turning to `CC(=O)Nc1cccc(N)c1`, the AC50 was > 35 µM (inactive).

Take `CC(=O)Oc1ccc2c(c1)Oc1cc(OC(C)=O)ccc1C21OC(=O)c2ccccc21`: the AC50 is > 35 µM (inactive).

As for `O=S(=O)(Nc1cc(Cl)ccc1N1CCOCC1)c1ccccc1Cl`, the AC50 was > 35 µM (inactive).

`Cc1cc(C)c2nc(C(F)(F)F)nc(NCCCN3CCCC3=O)c2c1`: the AC50 is > 35 µM (inactive).

Turning to `O=C(CCCN1C(=O)c2cccc3cccc(c23)C1=O)N1CCN(c2ccccc2)CC1`, the AC50 was > 35 µM (inactive).

Take `CCCCCCCCCCCCCCCC[n+]1ccc(/C=N/O)cc1`: the half-maximal activity concentration (AC50) is 11.9 µM.

As to `COc1ccc2c3c(cccc13)C(=O)CC2`, the AC50 is 22.3 µM.

Turning to `Cc1cc2nc3c(=O)n(Cc4ccccc4)c(=O)[nH]c3nc2cc1N`, the AC50 was > 35 µM (inactive).

Take `CC(C)(C)C1(C)OC(=O)C(=Cc2ccc(OCC(=O)Nc3ccccc3)cc2)C(=O)O1` (centres undefined): the AC50 was > 35 µM (inactive).

For the compound `Cc1n[nH]c(C)c1N1C(=O)c2cccc3c(N4CCCCCC4)ccc(c23)C1=O`, the AC50 is > 35 µM (inactive).

`CC(=O)Nc1ccc(-c2cn3ccsc3n2)cc1`: the AC50 is > 35 µM (inactive).

Turning to `CC(C)CSC1=NSC2=NC(=O)/C(=C\c3coc4ccccc4c3=O)C(=N)N12`, the AC50 is > 35 µM (inactive).

`Cc1cc(C)cc(NS(=O)(=O)c2ccc3c(c2)C(C)(C)C(=O)N3C)c1`: the AC50 was > 35 µM (inactive).

Turning to `COc1cccc2c1C(=O)c1c(O)c3c(c(O)c1C2=O)CC(O)(C(=O)CO)CC3OC1CC(N)C(O)C(C)O1` (centres undefined), the AC50 is 4.4 µM.

For `O=C1CCN2C=Nc3cccc4ccc1c2c34`, the concentration at half-maximal activity (AC50) was 8.08 µM.

Take `CN(C)/C=C1\C=C2C(=O)c3ccccc3N2C1=O`: the AC50 is > 35 µM (inactive).
